In patent US12091708B2, “Compositions and methods targeting the Th2 pathway for the treatment of asthma” (THE CHILDREN'S HOSPITAL OF PHILADELPHIA, priority 2017, dated 2024):

Biological target: T1, CRTH2 receptor (Homo sapiens, UniProt Q9Y5Y4)
T1 construct: CD3+ cells were isolated from the rested PBMCs using Human T-Expander CD3/CD28 Dynabeads; endogenous in cells; host or cells: primary human CD3+/CD28+ T cells purified from PBMCs of healthy volunteers, expanded 10 days under TH2-skewing conditions
T1 sequence (Q9Y5Y4 1-395): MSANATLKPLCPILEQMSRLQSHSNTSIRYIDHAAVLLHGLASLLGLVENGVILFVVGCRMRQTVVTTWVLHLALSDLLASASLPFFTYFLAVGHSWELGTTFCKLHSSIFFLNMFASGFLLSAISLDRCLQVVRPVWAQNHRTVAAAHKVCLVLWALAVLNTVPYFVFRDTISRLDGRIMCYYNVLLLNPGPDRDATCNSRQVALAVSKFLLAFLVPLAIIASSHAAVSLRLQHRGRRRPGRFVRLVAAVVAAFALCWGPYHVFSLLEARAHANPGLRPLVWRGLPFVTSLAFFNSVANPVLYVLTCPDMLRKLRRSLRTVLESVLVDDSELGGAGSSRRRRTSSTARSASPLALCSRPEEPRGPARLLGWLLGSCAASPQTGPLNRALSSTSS
Experiment: CRTH2 assay: IL-13 expression (qPCR) in expanded, TH2-skewed T cells stimulated with PGD2 with or without CD3/CD28
Format: cell-based
Details: T cells from healthy human volunteers, increasing concentrations of PGD2, with CD3/CD28 stimulation (FIG. 4)
Protocol: As discussed above, CRTH2 is a key regulator of TH2 cytokine expression and action. We developed a CRTH2 assay to determine the effects of the SNP, rs2786098, on CRTH2 expression and action. The CRTH2 assay was developed using the following protocol. PBMCs were thawed and placed into 10 ml of RPMI+20% FBS in 15 ml conical tubes. Tubes were closed tightly, and placed on a rocker in the incubator overnight. Viable cell counts were obtained the following day. CD3+ cells were isolated from the rested PBMCs using Human T-Expander CD3/CD28 Dynabeads. These magnetic beads were used to purify CD3+/CD28+ T cells from the PBMC mixture, and then left in the cell culture to provide stimulation and co-stimulation to induce expansion of the T cells. Purified T cells were cultured with the beads in the presence of IL-2, IL-4, anti-IFNγ, and anti-IL-12. IL-2 provides a proliferative stimulus, while IL-4, anti-IFNγ, and anti-IL-12 provide TH2 skewing conditions. Cells were cultured, and culture volume was increased as required, for 10 days, at which point, they were stimulated at 500,000 cells per well with the indicated stimuli for 8 hours. Cell pellets were harvested and RNA was extracted. Gene expression was determined by qPCR. […]

In the case of `CCCCC[C@H](O)/C=C/[C@H]1C(=O)C[C@H](O)[C@@H]1C/C=C\CCCC(=O)O` [PGD2, Prostaglandin D2], the “IL-13 production on stimulation” value is reported as “additional IL-13 was produced”.
